Literature values, collected in publication PMC6311893, “Computational prediction of plasma protein binding of cyclic peptides from small molecule experimental data using sparse modeling techniques” (BMC Bioinformatics, 2018).

Tested on: plasma protein
Conditions: cited from earlier work

Going from `COc1cc(C)c(/C=C/C(C)=C/C=C/C(C)=C/C(=O)O)c(C)c1C` [acitretin] to `Cc1ccc(C(N)C(=O)NC2C(=O)N3C2SC(C)(C)C3C(=O)O)cc1` (stereo not drawn) [penicillin27], the “PPB (fb)” value falls from 0.99 to 0.6.

Same assay, conditions: fraction bound to plasma protein; small molecule dataset, sheet 1-SM (Set Dte = test, Dtr = training); ref Ingle et al.; cited from earlier work

Compared with `CC(C)Cc1ccc(C(C)C(=O)NC(C)C(=O)O)cc1` (stereo not drawn) [JMC_09], `CC(C)NCC(O)COc1ccc(COCCOC(C)C)cc1` (stereo not drawn) [Bisoprolol] is lower in “PPB (fb)” value: 0.96 for the first, 0.32 for the second.

First: CN(C)CCC(c1ccc(Br)cc1)c1ccccn1 (stereo not drawn) [brompheniramine]
Second: Clc1ccc2c(c1)C(N1CCNCC1)=Nc1ccccc1O2 [amoxapine]
The “PPB (fb)” value of the first is lower: 0.72 for the first, 0.9 for the second.

Going from `CC12CC(=O)C3C(CCC4CC(O)CCC43C)C1CCC2C(=O)CO` (stereo not drawn) [alfadolone] to `CC12CCC3c4ccc(O)cc4CCC3C1CCC2O` (stereo not drawn) [17-a-estradiol], the “PPB (fb)” value rises from 0.3 to 0.98.

Compared with `Cc1cc(C)nc(NS(=O)(=O)c2ccc(N)cc2)n1` [sulfadimidine], `CC(C)CN(C[C@@H](O)[C@H](Cc1ccccc1)NC(=O)O[C@H]1CCOC1)S(=O)(=O)c1ccc(N)cc1` [amprenavir] is higher in “PPB (fb)” value: 0.85 for the first, 0.9 for the second.

First: Cc1ccccc1-n1cc(C(=O)O)c(=O)c2cc(F)c(N3CCNCC3)cc21 [4a(o-CH3)]
Second: COc1ccccc1-n1cc(C(=O)O)c(=O)c2cc(F)c(N3CCNCC3)cc21 [5a(o-OCH3)]
The “PPB (fb)” value of the first is higher: 0.37 for the first, 0.29 for the second.

Going from `CCN(CC)C(=O)Nc1ccc(OCC(O)CNC(C)(C)C)c(C(C)=O)c1` (stereo not drawn) [celiprolol] to `CCN(CC)CCNC(=O)c1cc(Br)c(N)cc1OC` [Bromopride], the “PPB (fb)” value rises from 0.25 to 0.4.

Compared with `NCC[C@H](O)C(=O)N[C@@H]1C[C@H](N)[C@@H](O[C@H]2O[C@H](CN)CC[C@H]2N)[C@H](O)[C@H]1O[C@H]1O[C@H](CO)[C@@H](O)[C@H](N)[C@H]1O` [arbekacin], `OC[C@H]1OC(O)[C@H](O)[C@@H](O)[C@@H]1O` (stereo partly drawn) [dextrose] is higher in “PPB (fb)” value: 0.08 for the first, 0.3 for the second.

Going from `Clc1ccccc1C(c1ccccc1)(c1ccccc1)n1ccnc1` [clotrimazole] to `CC1(C)SC2C(NC(=O)C(Br)c3ccccc3)C(=O)N2C1C(=O)O` (stereo not drawn) [penicillin21], the “PPB (fb)” value rises from 0.5 to 0.82.

First: CC(=O)Nc1c(I)c(NC(C)=O)c(I)c(C(=O)O)c1I [Diatrizoic Acid (Amidotrizoate)]
Second: CC(C)Nc1cccnc1N1CCN(C(=O)c2cc3cc(NS(C)(=O)=O)ccc3[nH]2)CC1 [delavirdine]
The “PPB (fb)” value of the first is lower: 0.02 for the first, 0.98 for the second.

Compared with `CCCCCOC(=O)Nc1nc(=O)n([C@@H]2O[C@H](C)[C@@H](O)[C@H]2O)cc1F` [capecitabine], `C[C@H](Cn1cnc2c(N)ncnc21)OCP(=O)(O)O` [Tenofovir] is lower in “PPB (fb)” value: 0.3 for the first, 0.07 for the second.

Same assay, conditions: fraction bound to plasma protein; small molecule dataset, sheet 1-SM, Set Dtr; ref Ingle et al.; cited from earlier work

Compared with `COc1ccc2c(C(=S)N(C)CC(=O)O)cccc2c1C(F)(F)F` [tolrestat], `CN(C)CCCN1c2ccccc2CCc2cc(O)ccc21` [Hydroxyimipramine__ 2-] is lower in “PPB (fb)” value: 0.99 for the first, 0.64 for the second.

Going from `Cc1onc(-c2ccccc2)c1-c1ccc(S(N)(=O)=O)cc1` [valdecoxib] to `COc1ccc(C(=O)Nc2ccccc2CCC2CCCCN2C)cc1` (stereo not drawn) [Encainide], the “PPB (fb)” value falls from 0.98 to 0.72.

Going from `C=CCN1CC[C@]23c4c5ccc(O)c4O[C@H]2C(=O)CC[C@@]3(O)[C@H]1C5` [Naloxone] to `C=C[C@H]1C[N@@]2CC[C@H]1C[C@H]2[C@H](O)c1ccnc2ccc(OC)cc12` [Quinine], the “PPB (fb)” value rises from 0.45 to 0.81.

Going from `NCc1ccccc1CC(=O)N[C@@H]1C(=O)N2C(C(=O)O)=C(CSc3nnnn3CC(=O)O)CS[C@H]12` [Ceforanide] to `Nc1nc(/C(=N/O)C(=O)N[C@@H]2C(=O)N3C(C(=O)O)=C(/C=C4\CCN([C@@H]5CCNC5)C4=O)CS[C@H]23)ns1` [Ceftobiprole], the “PPB (fb)” value falls from 0.81 to 0.38.

First: O=C(O)CCNC(=O)c1ccccc1 [Betamipron]
Second: c1ccc(CC2=NCCN2)cc1 [tolazoline]
The “PPB (fb)” value of the first is higher: 0.83 for the first, 0.23 for the second.

Going from `CCN(CC)CCCC(C)Nc1ccnc2cc(Cl)ccc12` (stereo not drawn) [Chloroquine] to `CCc1nn(CCCN2CCN(c3cccc(Cl)c3)CC2)c(=O)n1CCOc1ccccc1` [Nefazodone], the “PPB (fb)” value rises from 0.58 to 0.99.

First: Cc1onc(-c2c(Cl)cccc2Cl)c1C(=O)N[C@@H]1C(=O)N2[C@@H]1SC(C)(C)[C@@H]2C(=O)O [Dicloxacillin]
Second: Clc1cccc(Cl)c1N=C1NCCN1 [Clonidine]
The “PPB (fb)” value of the first is higher: 0.96 for the first, 0.34 for the second.

First: COCCNC(=O)CN(CCN(CCN(CC(=O)O)CC(=O)NCCOC)CC(=O)O)CC(=O)O [Gadoversetamide]
Second: N[C@@H](Cc1ccc(O)c(O)c1)C(=O)O [Levodopa]
The “PPB (fb)” value of the first is lower: 0 for the first, 0.12 for the second.

Compared with `CCOC(=O)c1ncn2c1CN(C)C(=O)c1cc(F)ccc1-2` [Flumazenil], `O=c1[nH]c2ccccc2n1CCCN1CCC(n2c(=O)[nH]c3cc(Cl)ccc32)CC1` [Domperidone] is higher in “PPB (fb)” value: 0.46 for the first, 0.92 for the second.

Same assay, conditions: fraction bound to plasma protein; small molecule dataset, sheet 1-SM; ref Ingle et al.; cited from earlier work

First: CCOc1c(C)nc2ccccc2c1C(=O)NC1C(=O)N2C1SC(C)(C)C2C(=O)O (stereo not drawn) [penicillin79]
Second: CC(C)(Oc1ccccc1)C(=O)NC1C(=O)N2C1SC(C)(C)C2C(=O)O (stereo not drawn) [penicillin49]
The “PPB (fb)” value of the first is lower: 0.74 for the first, 0.92 for the second.

First: CN1CCC(=C2c3ccccc3CC(=O)c3sccc32)CC1 [ketotifen]
Second: O=C1c2ccccc2C(=O)C1c1ccccc1 [phenindione]
The “PPB (fb)” value of the first is lower: 0.8 for the first, 0.97 for the second.

First: O=C1NCCN1CCN1CCC(c2cn(-c3ccc(F)cc3)c3ccc(Cl)cc23)CC1 [sertindole]
Second: O=C1[C@H](CC[C@H](O)c2ccc(F)cc2)[C@@H](c2ccc(O)cc2)N1c1ccc(F)cc1 [Ezetimibe]
The “PPB (fb)” value of the first is higher: 0.99 for the first, 0.9 for the second.

Going from `Cc1cc(C(=O)NCCc2ccc(S(=O)(=O)NC(=O)NN3CCCCCC3)cc2)no1` [glisoxepide] to `Cc1nc(NS(=O)(=O)c2ccc(N)cc2)oc1C` [sulfamoxole], the “PPB (fb)” value falls from 0.93 to 0.7.

First: O=C(O)COc1ccc(C(=O)c2cccs2)c(Cl)c1Cl [tienilic acid]
Second: O=C(OCC(O)CO)c1ccccc1Nc1ccnc2c(C(F)(F)F)cccc12 (stereo not drawn) [floctafenine]
The “PPB (fb)” value of the first is higher: 0.99 for the first, 0.85 for the second.

First: COC(CC(=O)NC1C(=O)N2C1SC(C)(C)C2C(=O)O)c1ccc(Br)s1 (stereo not drawn) [penicillin74]
Second: CC1(C)SC2C(NC(=O)COc3ccc(F)cc3)C(=O)N2C1C(=O)O (stereo not drawn) [penicillin54]
The “PPB (fb)” value of the first is higher: 0.9 for the first, 0.81 for the second.

`O=C1Nc2ccc(Cl)cc2[C@@](C#CC2CC2)(C(F)(F)F)O1` [efavirenz] and `CCc1cccc2c3c([nH]c12)C(CC)(CC(=O)O)OCC3` (stereo not drawn) [etodolac] are the same in “PPB (fb)” value: 0.99 for the first, 0.99 for the second.

Compared with `CC1(C)SC2C(NC(=O)C(NC(=O)c3ccc(S(N)(=O)=O)cc3)c3ccccc3)C(=O)N2C1C(=O)O` (stereo not drawn) [penicillin35], `NS(=O)(=O)c1ccc(S(=O)(=O)Nc2cccc3c(Cl)c[nH]c23)cc1` [indisulam] is higher in “PPB (fb)” value: 0.42 for the first, 0.98 for the second.

First: CC(C)OC(=O)OCOP(=O)(CO[C@H](C)Cn1cnc2c(N)ncnc21)OCOC(=O)OC(C)C [tenofovir disoproxil]
Second: CO[C@@H]1[C@@H](OC(N)=O)[C@@H](O)[C@H](Oc2ccc3c(O)c(NC(=O)c4ccc(O)c(CC=C(C)C)c4)c(=O)oc3c2C)OC1(C)C [Novobiocin]
The “PPB (fb)” value of the first is lower: 0.07 for the first, 0.9 for the second.

First: CC(=O)C1CCC2C3CC=C4CC(O)CCC4(C)C3CCC12C (stereo not drawn) [Pregnenolone]
Second: CCCOC(C(=O)OC1CCN(C)CC1)(c1ccccc1)c1ccccc1 [propiverine]
The “PPB (fb)” value of the first is lower: 0.8 for the first, 0.9 for the second.

Compared with `Cc1nc(C)c(C)nc1C` [tetramethylpyrazine phosphate], `CC(C)(S)[C@@H](N)C(=O)O` [penicillamine] is higher in “PPB (fb)” value: 0.56 for the first, 0.8 for the second.

Same assay, conditions: human, plasma; cited from earlier work

For `CC(C)C[C@H](NC(=O)[C@@H](COC(C)(C)C)NC(=O)[C@H](Cc1ccc(O)cc1)NC(=O)[C@H](CO)NC(=O)[C@H](Cc1c[nH]c2ccccc12)NC(=O)[C@H](Cc1cnc[nH]1)NC(=O)[C@@H]1CCC(=O)N1)C(=O)N[C@@H](CCCNC(=N)N)C(=O)N1CCC[C@H]1C(=O)NNC(N)=O` [goserelin], the “PPB (fb)” value is listed as 0.2.

Same assay, conditions: plasma; cited from earlier work

Going from `O=NN(CCCl)C(=O)NCCCl` [Carmustine (BCNU)] to `C=CCC1(C(C)CCC)C(=O)NC(=O)NC1=O` (stereo not drawn) [quinalbarbitone], the “PPB (fb)” value falls from 0.77 to 0.5.

Compared with `C[C@]12CC[C@H]3[C@@H](CCC4=CC(=O)CC[C@@]43C)[C@@H]1CC[C@@H]2O` [Testosterone], `O=P1(N(CCCl)CCCl)NCCCO1` (stereo not drawn) [Cyclophosphamide] is lower in “PPB (fb)” value: 0.6 for the first, 0.15 for the second.

First: CCC1(c2ccccc2)CCC(=O)NC1=O (stereo not drawn) [glutethimide]
Second: Tolcapone
The “PPB (fb)” value of the first is lower: 0.5 for the first, 0.99 for the second.

Going from `CC(C)(C)NCC(O)c1cc(Cl)c(N)c(Cl)c1` (stereo not drawn) [clenbuterol] to cefotiam, the “PPB (fb)” value falls from 0.5 to 0.4.

Going from `CN1C(=O)CCS(=O)(=O)C1c1ccc(Cl)cc1` (stereo not drawn) [chlormezanone] to quinagolide, the “PPB (fb)” value rises from 0.5 to 0.9.

Compared with `CCCC(C)(COC(N)=O)COC(=O)NC(C)C` (stereo not drawn) [carisoprodol], `CC[C@@H](CO)NC(=O)[C@@H]1C=C2c3cccc4c3c(cn4C)C[C@H]2N(C)C1` [methysergide] is higher in “PPB (fb)” value: 0.58 for the first, 0.66 for the second.

Going from flurazepam to `COC(=O)[C@H]1[C@@H](OC(=O)c2ccccc2)C[C@@H]2CC[C@H]1N2C` [Cocaine], the “PPB (fb)” value falls from 0.97 to 0.89.

Compared with `CC(C)=CCN1CCC2(C)c3cc(O)ccc3CC1C2C` (stereo not drawn) [Pentazocine], `O=[N+]([O-])O[C@H]1CO[C@H]2[C@@H]1OC[C@H]2O[N+](=O)[O-]` [Isosorbide Dinitrate] is lower in “PPB (fb)” value: 0.61 for the first, 0.29 for the second.

First: COc1ccc2c(C(=O)c3ccc(Cl)cc3)c(C)n(CC(=O)O)c2c1 [Clometacin]
Second: CN1C[C@H](C(=O)N[C@]2(C)O[C@@]3(O)[C@@H]4CCCN4C(=O)[C@H](Cc4ccccc4)N3C2=O)C=C2c3cccc4[nH]cc(c34)C[C@H]21 [Ergotamine]
The “PPB (fb)” value of the first is higher: 0.99 for the first, 0.96 for the second.

Going from `C[N+](C)(C)CCOC(=O)CCC(=O)OCC[N+](C)(C)C` [succinylcholine] to `O=C1CN=C(c2ccccc2Cl)c2cc(Cl)ccc2N1` [Delorazepam (Chlordesmethyldiazepam)], the “PPB (fb)” value rises from 0.3 to 0.95.

In the case of Doxycycline, the “PPB (fb)” value is listed as 0.89.
